The target in this assay is Mtb DTBS (BioD) (Mycobacterium tuberculosis, UniProt P9WPQ5).
Sequence of Mtb DTBS (BioD) (P9WPQ5 whole entry): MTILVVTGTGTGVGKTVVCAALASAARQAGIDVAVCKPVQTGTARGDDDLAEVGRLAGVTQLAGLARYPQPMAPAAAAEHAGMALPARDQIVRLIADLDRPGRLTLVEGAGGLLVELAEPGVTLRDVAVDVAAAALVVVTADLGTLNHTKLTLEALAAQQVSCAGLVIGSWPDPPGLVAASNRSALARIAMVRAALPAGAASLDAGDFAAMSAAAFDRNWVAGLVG

`C[C@H](N)[C@@H](CCCCCC(=O)O)NC(=O)O` [DAPA-carbamate]: the “X-ray crystal structure, 2.05 Å (crystal soaked in 10 mM DAPA)” value was “additional electron density attached to the N7 atom of DAPA that fits the carbon dioxide”.

These data come from publication PMC3503319 (Biochemistry, 2010).
